ChEMBL document CHEMBL1148519, “Antitumor activity of tetrahydroisoquinoline analogues 3-epi-jorumycin and 3-epi-renieramycin G” (2006)

Key:
A549 = test: Antiproliferative activity against human A549 cell line; type: functional
HCT-116 = test: Antiproliferative activity against human HCT116 cell line; type: functional

| GI50 (A549) [nM] | GI50 (HCT-116) [nM] | Compound |
| --- | --- | --- |
| 4640 | 610 | COC1=C(C)C(=O)C2=C(C1=O)[C@@H]1[C@H]3CC4=C(C(=O)C(OC)=C(C)C4=O)[C@H](COC(C)=O)N3[C@@H](O)[C@H](C2)N1C |
| 19.2 | 1.9 | COC1=C(C)C(=O)C2=C(C1=O)[C@@H]1[C@@H]3CC4=C(C(=O)C(OC)=C(C)C4=O)[C@H](COC(C)=O)N3[C@@H](O)[C@H](C2)N1C |
| 10100 | 1400 | C/C=C(/C)C(=O)OC[C@H]1C2=C(C[C@@H]3[C@H]4C5=C(C[C@@H](C(=O)N31)N4C)C(=O)C(C)=C(OC)C5=O)C(=O)C(C)=C(OC)C2=O [3-EPI-RENIERAMYCIN G] |
| 12900 | 3870 | C/C=C(/C)C(=O)OC[C@H]1C2=C(C[C@H]3[C@H]4C5=C(C[C@@H](C(=O)N13)N4C)C(=O)C(C)=C(OC)C5=O)C(=O)C(C)=C(OC)C2=O [(-)-RENIERAMYCIN G] |
